Each structure is given as a SMILES string.

As usually defined, the IC50 is the midpoint of a concentration-inhibition curve. A low value points to greater potency in that assay.

The test system of the first assay is Miapaca-2 cell. Put plainly: Inhibitory activity against cancer cells (MTT cell viability), Miapaca-2. The class given is cell-based. The following applies: Homo sapiens, MIA PaCa-2, Miapaca-2, 48 hr incubation. On the procedure:
(§1) The inhibitory activities of biguanide derivatives against cancer cells were evaluated in the cell line SK-MEL-28 derived from human Melanoma cell, Miapaka-2 cell line derived from human pancreatic cancer cell and HCT116 cell line derived from human colorectal cancer cell by measuring the concentration that inhibits 50% of the growth of the cell lines (the half maximal inhibitory concentration, IC50).
(§2) Firstly, SK-MEL-28 cells were grown to be density of 5,000 cells/well in RPMI-1640 media supplemented with 10% (v/v) bovine calf serum, on 96-well plates for 16 hr. To measure the IC50 of each compound, the cells were incubated for 48 hr with the 100 mM PBS stock compounds at an amount of 10 mM, 1 mM, 200 uM, 40 uM, 8 uM, 1.6 uM, 0.32 uM or 0.064 uM; 50 mM PBS and EtOH stock compounds at an amount of 1 mM, 200 uM, 40 uM, 8 uM, 1.6 uM, 0.32 uM and 0.064 uM; and 50 mM DMSO stock compounds at an amount of 100 uM, 25 uM, 6.25 uM, 1.56 uM, 0.39 uM, 0.10 uM and 0.02 uM, respectively. To test the viable cells after incubation with each compound, the cell cultures were incubated additionally for 2 hr in the presence of MTT. The produced formazan crystals were dissolved with dimethyl sulfoxide and then measured by detecting the absorbance at 560 nm.
(§3) After the 48 hr incubation, the viable cells were counted on the well plates treated with the compounds of the Examples relative to the count of the viable cells on the non-treated plates, and then was represented as the cell viability (%). By using the cell viability (%) result, the cell viability curve was plotted, and IC50 was calculated from the curve to evaluate the inhibitory activity against cancer cells.
(§4) The inhibitory activities of biguanide derivatives against cancer cells of Miapaca-2 cell and HCT116 cell were evaluated according to the substantially same method as described in SK-MEL-28 cell, except that DMEM media supplemented with 10% (v/v) bovine calf serum was used instead of RPMI-1640 media supplemented with 10% (v/v) bovine calf serum for SK-MEL-28 cell.
`[H]/N=C(/N)N/C(=N/[H])NCCc1ccccc1` [Phenformin, phenformin, reference compound] showed an IC50 of 119 µM.

`N=C(NC(=N)N1CCCC1)Nc1ccc(C(N)=O)cc1` [Example 23, N1-pyrrolidine-N5-4-benzamide biguanide] displayed an IC50 of 2340 µM.

The next assay relates to SK-MEL-28 cells. Put plainly: Inhibitory activity against cancer cells (MTT cell viability), SK-MEL-28. The class given is cell-based. The conditions noted are these: Homo sapiens, SK-MEL-28, 48 hr incubation. As to the method: as §1, §2, §3
`[H]/N=C(/N)N/C(=N/[H])NCCc1ccccc1` [Phenformin, phenformin, reference compound] displayed an IC50 of 266 µM.

In the case of `N=C(NC(=N)N1CCCC1)Nc1ccc(C(N)=O)cc1` [Example 23, N1-pyrrolidine-N5-4-benzamide biguanide], the IC50 was greater than 1000 µM.

A further assay concerns HCT116 cell. Put plainly: Inhibitory activity against cancer cells (MTT cell viability), HCT116. The format is cell-based, human. The following applies: Homo sapiens, HCT 116, 48 hr incubation. As to the method:
as §1, §2, §3, §4
Compound `[H]/N=C(/N)N/C(=N/[H])NCCc1ccccc1` [Phenformin, phenformin, reference compound] had an IC50 of 12.5 µM.

`N=C(NC(=N)N1CCCC1)Nc1ccc(C(N)=O)cc1` [Example 23, N1-pyrrolidine-N5-4-benzamide biguanide] registered an IC50 greater than 100 µM.

As to `N=C(NC(=N)N1CCCC1)Nc1ccc(NC(=O)CCCCC2CC3NC(=O)NC3S2)cc1` (stereo not drawn) [Example 82, N-(4-(3-(imino(pyrrolidin-1-yl)methyl)guanidino)phenyl)-5-(2-oxohexahydro-1H-thieno[2,3-d]imidazol-5-yl)pentanamide], the IC50 is greater than 100 µM.

`N=C(NC(=N)Nc1cccnc1)Nc1ccc(C(F)(F)F)cc1` [Example 62, N1-3-pyridine-N5-(4-trifluoromethyl)phenyl biguanide] showed an IC50 greater than 100 µM.

Compound `N=C(NC(=N)N1CCCC1)Nc1ccc(CNC(=O)c2ccccc2-c2c3ccc(=O)cc-3oc3cc(O)ccc23)cc1` [Example 83, 2-(6-hydroxy-3-oxo-3H-xanthen-9-yl)-N-(4-(3-(imino(pyrrolidin-1-yl)methyl)guanidino)benzyl)benzamide] returned an IC50 of 56.8 µM.

`CN(C(=N)NC(=N)N1CCCC1)c1c(F)cccc1F` [Example 4, N1-pyrrolidine-N5-(2,6-difluoro-N5-methyl)phenyl biguanide] showed a 50% inhibitory concentration (IC50) greater than 100 µM.

As to `N=C(NC(=N)N1CCCC1)Nc1cccc(-c2ccccc2)c1` [Example 8, N1-pyrrolidine-N5-(N-biphenyl-3-yl) biguanide], the IC50 stood at 6.97 µM.

Compound `CN1CCN(C(=N)NC(=N)Nc2ccc(OC(F)(F)F)c(F)c2)CC1` [Example 37, N1-4-methyl piperazine-N5-(3-fluoro-4-trifluoromethoxy)phenyl biguanide] yielded an IC50 of 32.3 µM.

On to `N=C(NC(=N)Nc1cnccn1)Nc1ccc(C(F)(F)F)cc1` [Example 67, N1-2-pyrazine-N5-(4-trifluoromethyl)phenyl biguanide], for which the IC50 was found to be 50.7 µM.

`N=C(NC(=N)N1CCCC1)Nc1cccc(-c2ccc(F)cc2)c1` [Example 10, N1-pyrrolidine-N5-(4′-fluorobiphenyl-3-yl) biguanide] came in with a half-maximal inhibitory concentration (IC50) of 6.28 µM.

The compound `CC1CCCN(C(=N)NC(=N)Nc2ccc(CCN)cc2)C1` (stereo not drawn) [Example 50] came in with an IC50 greater than 100 µM.

The compound `CC1CCCN(C(=N)NC(=N)Nc2ccc(CNC(=O)c3ccccc3-c3c4ccc(=O)cc-4oc4cc(O)ccc34)cc2)C1` (stereo not drawn) [Example 86, 2-(6-hydroxy-3-oxo-3H-xanthene-9-yl)-N-(4-(3-(imino(3-methylpiperidine-1-yl)methyl)guanidino)benzyl)benzamide] came in with an IC50 of 53.2 µM.

As to `CN1CCN(C(=N)NC(=N)Nc2cccc(Br)c2)CC1` [Example 32, N1-4-methyl piperazine-N5-(3-bromo)phenyl biguanide], the IC50 worked out at 90.3 µM.

`N=C(NC(=N)Nc1cnccn1)Nc1ccc(OC(F)(F)F)cc1` [Example 66, N1-2-pyrazine-N5-(4-trifluoromethoxy)phenyl biguanide] had a half-inhibitory concentration (IC50) greater than 100 µM.

With `N=C(NC(=N)N1CCCC1)Nc1ccc(-c2cccc(F)c2)cc1` [Example 11, N1-pyrrolidine-N5-(3′-fluorobiphenyl-4-yl) biguanide], 6.46 µM corresponded to half-maximal inhibition (IC50).

As to `CN1CCN(C(=N)NC(=N)Nc2ccc(F)c(C(F)(F)F)c2)CC1` [Example 35, N1-4-methyl piperazine-N5-(4-fluoro-3-trifluoromethyl)phenyl biguanide], inhibition was half-maximal at 32.4 µM (IC50).

Turning to `CC1CC(C)CN(C(=N)NC(=N)Nc2ccc(CCNC(=O)CCCCC3CC4NC(=O)NC4S3)cc2)C1` (stereo not drawn) [Example 79, N-(4-(3-((3,5-dimethylpiperidin-1-yl)(imino)methyl)guanidino)phenethyl)-5-(2-oxohexahydro-1H-thieno[2,3-d]imidazol-5-yl)pentanamide], the IC50 is greater than 100 µM.

Turning to `N=C(NC(=N)N1CCc2ccccc2C1)Nc1ccc(OC(F)(F)F)cc1` [Example 87, N—(N-(4-(trifluoromethoxy)phenyl)carbamimidoyl)-3,4-dihydroisoquinolin-2(1H)-carboximidamide], half-maximal inhibition (IC50) was put at 2.57 µM.

Consider `CN1CCN(C(=N)NC(=N)Nc2ccc(Cl)c(OC(F)(F)F)c2)CC1` [Example 39, N1-4-methyl piperazine-N5-(4-chloro-3-trifluoromethoxy)phenyl biguanide], for which the IC50 was determined as 7.5 µM.

Take `N=C(NC(=N)NC1CCCC1)Nc1ccc(OC(F)(F)F)cc1` [Example 68, N1-cyclopentyl-N5-(4-trifluoromethoxy)phenyl biguanide]: the concentration for half-maximal inhibition (IC50) was 53.1 µM.

`CCN1CCN(C(=N)NC(=N)Nc2ccc(OC(F)(F)F)cc2)CC1` [Example 45, N1-4-ethyl piperazine-N5-(4-trifluoromethoxy)phenyl biguanide] showed an IC50 of 33.8 µM.

In turn, `CN1CCN(C(=N)NC(=N)Nc2ccc(C(F)(F)F)c(F)c2)CC1` [Example 44, N1-4-methyl piperazine-N5-(3-fluoro-4-trifluoromethyl)phenyl biguanide] showed a concentration for half-maximal inhibition (IC50) of 42.2 µM.

Consider `COc1ccc(NC(=N)NC(=N)N2CCCC2)cc1` [Example 2, N1-pyrrolidine-N5-(4-methoxy)phenyl biguanide], for which the IC50 was greater than 100 µM.

`CN1CCN(C(=N)NC(=N)Nc2ccc(Cl)c(C(F)(F)F)c2)CC1` [Example 38, N1-4-methyl piperazine-N5-(4-chloro-3-trifluoromethyl)phenyl biguanide] returned a half-maximal inhibitory concentration (IC50) of 11.7 µM.

Regarding `CCNC(=O)c1cccc(CNC(=N)NC(=N)N2CCCC2)c1` [Example 30, N-ethyl-3-((3-(imino(pyrrolidin-1-yl)methyl)guanidino)methyl)benzamide], the IC50 is greater than 100 µM.

For the compound `N=C(Nc1nc2ccccc2[nH]1)N1CCCC1` [Example 96, N-(1H-benzo[d]imidazol-2-yl)pyrrolidine-1-carboximidamide], the IC50 was greater than 100 µM.

On to `N=C(NCCc1ccc(F)cc1)NC(=N)N1CCCC1` [Example 12, N1-pyrrolidine-N5-(4-fluoro)phenethyl biguanide], for which half-maximal inhibition (IC50) required 81.9 µM.

The compound `N=C(NC(=N)N1CCCC1)Nc1ccc(CCC(=O)N2CCCCC2)cc1` [Example 26, N—(N-(4-(3-oxo-3-(piperidin-1-yl)propyl)phenyl)carbamimidoyl)pyrrolidine-1-carboximidamide] returned a half-inhibitory concentration (IC50) greater than 100 µM.

With `N=C(NC(=N)Nc1cccnc1)Nc1ccc(OC(F)(F)F)cc1` [Example 63, N1-3-pyridine-N5-(4-trifluoromethoxy)phenyl biguanide], the IC50 is greater than 100 µM.

`N=C(NC(=N)N1CCCC1)Nc1ccc(CCN)cc1` [Example 47] registered an IC50 greater than 100 µM.

`N=C(NC(=N)N1CCC(F)(F)C1)Nc1ccc(OC(F)(F)F)cc1` [Example 51, N1-3,3-difluoro pyrrolidine-N5-(4-trifluoromethoxy)phenyl biguanide] had an IC50 of 7.83 µM.

For `N=C(NCc1ccc(C(=O)N2CCCCC2)cc1)NC(=N)N1CCCC1` [Example 25, N—(N-(4-(piperidine-1-carbonyl)benzyl)carbamimidoyl)pyrrolidine-1-carboximidamide], the IC50 was greater than 100 µM.

`N=C(NC(=N)N1CC[C@H](O)C1)Nc1ccc(SCC(=O)N2CCCCC2)cc1` [Example 29, (S)-3-hydroxy-N—(N-(4-(2-oxo-2-(piperidin-1-yl)ethylthio)phenyl)carbamimidoyl)pyrrolidine-1-carboximidamide] gave an IC50 greater than 100 µM.

On to `N=C(NC(=N)N1CCC(F)(F)CC1)Nc1ccc(OC(F)(F)F)cc1` [Example 52, N1-4,4-difluoro piperidine-N5-(4-trifluoromethoxy)phenyl biguanide], for which the IC50 worked out at 7.65 µM.

Compound `CN1CCN(C(=N)NC(=N)Nc2ccc(OC(F)(F)F)c(Cl)c2)CC1` [Example 36, N1-4-methyl piperazine-N5-(3-chloro-4-trifluoromethoxy)phenyl biguanide] yielded an IC50 of 7.1 µM.

On to `N=C(NC(=N)N1CCc2ccccc21)Nc1cccc(Oc2ccccc2)c1` [Example 91, N—(N-(3-phenoxyphenyl)carbamimidoyl)indoline-1-carboximidamide], for which it took 11 µM to reach half-maximal inhibition (IC50).

`C[C@@H]1CCC[C@H](C)N1C(=N)NC(=N)Nc1ccc(CNC(=O)c2ccccc2-c2c3ccc(=O)cc-3oc3cc(O)ccc23)cc1` [Example 84, N-(4-(3-(((2R,6S)-2,6-dimethylpiperidin-1-yl)(imino)methyl)guanidino)benzyl)-2-(6-hydroxy-3-oxo-3H-xanthen-9-yl)benzamide] had an IC50 of 27.4 µM.

The compound `COc1ccc(NC(=N)NC(=N)N2CCCC2)cc1Cl` [Example 3, N1-pyrrolidine-N5-(3-chloro-4-methoxy)phenyl biguanide] displayed a 50% inhibitory concentration (IC50) greater than 100 µM.

(Values after patent publication US10221190B2, “Biguanide compounds and use thereof” (IMMUNOMET THERAPEUTICS INC., priority 2013, dated 2019).)
